Test results as given in ChEMBL document CHEMBL1921757, “Small molecule probes of the receptor binding site in the Vibrio cholerae CAI-1 quorum sensing circuit” (Bioorg Med Chem, 2011).

Assays:
[1] = molecular target: T1, CAI-1 autoinducer sensor kinase/phosphatase CqsS (Vibrio cholerae serotype O1 (strain ATCC 39315 / El Tor Inaba N16961)) (UniProt Q9KM66); assay: Ratio of compound IC50 to Ph-CAI-1 IC50 for CqsS receptor in Vibrio cholerae MM920 assessed as inhibition of quorum sensing regulated CAI-1 induced bioluminescence after 4 hrs by scintillation counting
T1 sequence (whole entry): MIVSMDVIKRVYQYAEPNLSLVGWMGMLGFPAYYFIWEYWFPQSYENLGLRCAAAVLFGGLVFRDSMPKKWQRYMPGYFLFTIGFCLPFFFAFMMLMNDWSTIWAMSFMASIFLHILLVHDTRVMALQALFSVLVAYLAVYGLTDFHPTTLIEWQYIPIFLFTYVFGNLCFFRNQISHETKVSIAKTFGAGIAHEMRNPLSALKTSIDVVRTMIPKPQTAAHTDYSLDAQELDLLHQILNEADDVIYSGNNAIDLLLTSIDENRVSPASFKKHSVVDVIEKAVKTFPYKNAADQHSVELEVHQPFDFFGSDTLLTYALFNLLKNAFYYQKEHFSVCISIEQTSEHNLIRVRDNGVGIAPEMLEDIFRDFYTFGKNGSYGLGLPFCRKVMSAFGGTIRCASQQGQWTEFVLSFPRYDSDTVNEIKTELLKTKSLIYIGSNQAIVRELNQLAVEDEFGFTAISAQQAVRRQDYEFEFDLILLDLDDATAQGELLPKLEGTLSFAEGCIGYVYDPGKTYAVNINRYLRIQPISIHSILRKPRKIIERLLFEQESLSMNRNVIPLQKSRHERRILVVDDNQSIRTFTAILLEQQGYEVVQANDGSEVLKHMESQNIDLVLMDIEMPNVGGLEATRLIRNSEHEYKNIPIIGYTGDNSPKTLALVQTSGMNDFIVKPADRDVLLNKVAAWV

[2] = molecular target: T1, CAI-1 autoinducer sensor kinase/phosphatase CqsS (Vibrio cholerae serotype O1 (strain ATCC 39315 / El Tor Inaba N16961)); assay: Antagonist activity at CqsS receptor in Vibrio cholerae MM920 assessed as inhibition of quorum sensing regulated CAI-1 induced bioluminescence after 4 hrs by scintillation counting relative to Ph-CAI-1; format: functional
Vibrio cholerae = assay: Antibacterial activity against Vibrio cholerae MM920 assessed as growth inhibition after 4 hrs by spectrophotometry; format: organism-based; conditions: in vivo
[3] = molecular target: T2, CAI-1 autoinducer sensor kinase/phosphatase CqsS (Vibrio cholerae serotype O1 (strain ATCC 39315 / El Tor Inaba N16961), UniProt Q9KM66); assay: Antagonist activity at CqsS receptor in Vibrio cholerae MM920 assessed as inhibition of quorum sensing regulated CAI-1 induced bioluminescence after 4 hrs by scintillation counting; format: functional
T2 sequence (Q9KM66 whole entry): T1 sequence (whole entry)

[4] = molecular target: T2, CAI-1 autoinducer sensor kinase/phosphatase CqsS; assay: Agonist activity at CqsS receptor in cqsA-deficient, luxQ-deficient Vibrio cholerae MM920 harboring cosmid pBB1 carrying Vibrio harveyi luxCDABE gene assessed as induction of quorum sensing regulated bioluminescence after 4 hrs by scintillation counting; format: functional
[5] = molecular target: T1, CAI-1 autoinducer sensor kinase/phosphatase CqsS (Vibrio cholerae serotype O1 (strain ATCC 39315 / El Tor Inaba N16961)); assay: Ratio of compound EC50 to (S)-CAI-1 EC50 for CqsS receptor in cqsA-deficient, luxQ-deficient Vibrio cholerae MM920 harboring cosmid pBB1 carrying Vibrio harveyi luxCDABE gene assessed as induction of quorum sensing regulated bioluminescence after 4 hrs by scintillation counting
[6] = molecular target: T1, CAI-1 autoinducer sensor kinase/phosphatase CqsS (Vibrio cholerae serotype O1 (strain ATCC 39315 / El Tor Inaba N16961)); assay: Agonist activity at CqsS receptor in cqsA-deficient, luxQ-deficient Vibrio cholerae MM920 harboring cosmid pBB1 carrying Vibrio harveyi luxCDABE gene assessed as maximal quorum sensing regulated bioluminescence at 50 uM after 4 hrs by scintillation counting relative to (S)-CAI-1; format: functional
[7] = molecular target: T1, CAI-1 autoinducer sensor kinase/phosphatase CqsS (Vibrio cholerae serotype O1 (strain ATCC 39315 / El Tor Inaba N16961)); assay: Agonist activity at CqsS receptor in cqsA-deficient, luxQ-deficient Vibrio cholerae MM920 harboring cosmid pBB1 carrying Vibrio harveyi luxCDABE gene assessed as quorum sensing regulated bioluminescence after 4 hrs by scintillation counting relative to (S)-CAI-1; format: functional

| Structure (SMILES) | Ratio IC50 [1] | Imax [2] [%] | growth inhibition (GI) (Vibrio cholerae) | IC50 [3] [µM] | EC50 [4] [µM] | Ratio EC50 [5] | Emax [6] [%] | Emax [7] [%] |
| --- | --- | --- | --- | --- | --- | --- | --- | --- |
| CCCCCCCCCC(=O)C(O)c1cccc(O)c1 (racemic) | 0.71 | 123 | Not Active | 36 | – | – | – | – |
| CCCCCCCCCC(=O)C(O)c1ccccc1OC (racemic) | > 9 | – | Not Active | > 500 | – | – | – | – |
| CCCCCCCCCC(=O)C(O)c1ccc(Br)cc1 (racemic) | 2.6 | 71 | Not Active | 185 | – | – | – | – |
| CCCCCCCCCC(=O)C(O)c1ccccc1Br (racemic) | > 9 | – | Not Active | > 500 | – | – | – | – |
| CCCCCCCCCCCCC(=O)[C@@H](O)CC | – | – | Not Active | – | > 50 | > 200 | 45 | – |
| CCCCCCCCCC(O)C(=O)CC (configuration not stated) | – | – | Not Active | – | – | 84 | – | 38 |
| CCCCCCCCCC(O)CCC (configuration not stated) | – | – | Not Active | – | > 50 | > 200 | – | – |
| CCCCCCCCCC(=O)C(O)c1ccc(O)c(O)c1 (racemic) | 3.4 | 122 | Not Active | 174 | – | – | – | – |
| CCCCCCCCCC(=O)C(O)c1cccc(Br)c1 (racemic) | > 9 | – | Not Active | > 500 | – | – | – | – |
| CCCCCCCCCC(=O)C(O)C(C)(C)C (racemic) | – | – | Not Active | – | > 50 | > 200 | – | – |
| CCCCCCCCCC(=O)C(S)CC (configuration not stated) | – | – | Not Active | – | 1.6 | 8.6 | – | 67 |
| CCCCCCCCCC(=O)C(O)c1cccc(OC)c1 (racemic) | > 9 | – | Not Active | > 500 | – | – | – | – |
| CCCCCCCCCC(=O)C(O)c1ccc(F)cc1 (racemic) | 2.7 | 125 | Not Active | 137 | – | – | – | – |
| CCCCCCCCCC(=O)[C@H](O)CC | – | – | Not Active | – | – | – | – | – |
| CCCCCCCCC(=O)[C@H](O)CC | – | – | Not Active | – | 1.61 | 6.7 | – | 95 |
| CCCCCCCCCC(=O)C(Cl)CC (configuration not stated) | – | – | Not Active | – | > 50 | > 200 | – | 24 |
| CCCCCCCCCC(=O)C(O)c1ccccc1O (racemic) | 3.4 | 144 | Not Active | 172 | – | – | – | – |
| CCCCCCCCCC(=O)C(=O)CC | – | – | Not Active | – | 3.2 | 14 | – | 92 |
| CCCCCCCCCC(=O)C(O)c1ccc(Cl)cc1 (racemic) | > 9 | – | Not Active | > 500 | – | – | – | – |
| CCCCCCCCCC(=O)C(O)c1ccc(C)c(C)c1 (racemic) | > 9 | – | Not Active | > 500 | – | – | – | – |
| CCCCCCCCCC(=O)C(O)C(C)C (racemic) | – | – | Not Active | – | 7.16 | 21 | – | 71 |
| CCCCCCCCCC(=O)C(N)CC.Cl (configuration not stated) | – | – | Not Active | – | 0.21 | 0.27 | – | 105 |
| CCCCCC(=O)[C@@H](O)CC | – | – | Not Active | – | > 50 | > 200 | 27 | – |
| CCCCCCCCCC(=O)C(O)c1ccc(O)cc1 (racemic) | 1.5 | 119 | Not Active | 78 | – | – | – | – |
| CCCCCCCC(=O)[C@@H](O)CC | – | – | Not Active | – | – | – | – | – |

| Structure (SMILES) | Ratio IC50 [1] | Imax [2] [%] | growth inhibition (GI) (Vibrio cholerae) | IC50 [3] [µM] | EC50 [4] [µM] | Ratio EC50 [5] | Emax [6] [%] | Emax [7] [%] |
| --- | --- | --- | --- | --- | --- | --- | --- | --- |
| CCCCCCCCCC(=O)C(N)c1ccccc1.Cl (racemic) | > 9 | – | Not Active | > 500 | – | – | – | – |
| CCCCCCCCCC(=O)CCC | – | – | Not Active | – | > 50 | > 200 | – | – |
| CCCCCCCC(=O)[C@H](O)CC | – | – | Not Active | – | – | – | – | – |
| CCCCCCCCCCC(=O)CC | – | – | Not Active | – | > 50 | > 200 | – | – |
| CCCCCCCCCCC(=O)[C@@H](O)CC | – | – | Not Active | – | 2.09 | 8.4 | – | 98 |
| CCCCCCCCCC(=O)C(O)c1cccc(F)c1 (racemic) | 3.5 | 112 | Not Active | 178 | – | – | – | – |
| CCCCCCCCCCC(O)CC (configuration not stated) | – | – | Not Active | – | > 50 | > 200 | – | – |
| CCCCCCCCCC(=O)[C@H](C)O | – | – | Not Active | – | 0.34 | 2.6 | – | 96 |
| CCCCCCCCCC(=O)C(O)c1ccccc1C (racemic) | > 9 | – | Not Active | > 500 | – | – | – | – |
| CCCCCCCCCC(=O)C(O)Cc1ccccc1 (racemic) | 1.9 | 124 | Not Active | 136 | – | – | – | – |
| CCCCCCCCCC(=O)C(Br)CC (configuration not stated) | – | – | Not Active | – | 2.4 | 13 | – | 73 |
| CCCCCCCCCC(=O)[C@@H](O)CC | – | – | Not Active | – | – | – | – | – |
| CCCCCCCCCC(=O)C(O)c1cccc(Cl)c1 (racemic) | > 9 | – | Not Active | > 500 | – | – | – | – |
| CCCCCCCCCC(=O)C(O)c1cccc(C)c1 (racemic) | 0.91 | 58 | Not Active | 46 | – | – | – | – |
| CCCCCCCCCC(=O)C(O)CCC (racemic) | – | – | Not Active | – | 0.78 | 6 | – | 84 |
| CCCCCCC(=O)[C@@H](O)CC | – | – | Not Active | – | > 50 | > 200 | 59 | – |
| CCCCCCCCCC(=O)C(O)c1cc(F)ccc1F (racemic) | 1.3 | 48 | Not Active | 68 | – | – | – | – |
| CCCCCCCCCC(O)C(O)CC (mixture of isomers) | – | – | Not Active | – | 4.3 | 18 | – | 83 |
| CCCCCCCCCC(=O)C(O)c1ccc(OC)cc1 (racemic) | > 9 | – | Not Active | > 500 | – | – | – | – |
| CCCCCCCCCC(=O)C(O)c1ccccc1Cl (racemic) | > 9 | – | Not Active | > 500 | – | – | – | – |
| CCCCCCCCCC(=O)C(O)c1ccccc1F (racemic) | 1.5 | 105 | Not Active | 74 | – | – | – | – |
| CCCCCCCCCC(=O)C(O)c1ccccc1 (racemic) | 1 | 100 | Not Active | 55 | – | – | – | – |
| CCCCCCCCC(=O)[C@@H](O)CC | – | – | Not Active | – | 1.1 | 4.6 | – | 100 |
| CCCCCCCCCC(=O)C(O)c1ccc(C)cc1 (racemic) | 2.2 | 99 | Not Active | 114 | – | – | – | – |
